{"source": "paper PMC6600542", "about": "(Molecules, 2019)", "key": {"[1]": {"tested_on": "human plasma deficient of FIX", "assay": "APTT clotting assay, FIX-deficient plasma", "format": "biochemical", "procedure": "(§1) For the PT assay, thromboplastin-D was reconstituted according to the manufacturer’s directions and warmed to 37 °C. […] After incubation for 4 min at 37 °C, clotting was initiated by adding 100 μL of prewarmed 25 mM CaCl2 and the time to clotting was noted. […] To determine the in vitro effect on the APTT of deficient human plasmas, the APTT assay was repeated, using human plasmas deficient of factor VII (FVII), factor IX (FIX), FXI, or factor XII (FXII). […] The positive control used in APTT and PT assays was rivaroxaban, a clinically used FXa inhibitor. Under the conditions reported, rivaroxaban doubled the APTT and PT at concentrations of 0.123 ± 0.003 µM and 0.193 ± 0.043 µM, respectively."}, "normal human plasma": {"tested_on": "normal human plasma", "assay": "PT clotting assay, normal human plasma", "format": "biochemical", "conditions": "for concentration to double the PT: normal human plasma (text)", "procedure": "as §1"}, "human FXIIIa": {"target": "T1, human FXIIIa (Homo sapiens, UniProt P00488)", "T1 construct": "followed by the addition of 2 μL human FXIIIa (0.3 μM); purchased Haematologic Technologies, Inc", "T1 sequence (P00488 39-732 limits assumed)": "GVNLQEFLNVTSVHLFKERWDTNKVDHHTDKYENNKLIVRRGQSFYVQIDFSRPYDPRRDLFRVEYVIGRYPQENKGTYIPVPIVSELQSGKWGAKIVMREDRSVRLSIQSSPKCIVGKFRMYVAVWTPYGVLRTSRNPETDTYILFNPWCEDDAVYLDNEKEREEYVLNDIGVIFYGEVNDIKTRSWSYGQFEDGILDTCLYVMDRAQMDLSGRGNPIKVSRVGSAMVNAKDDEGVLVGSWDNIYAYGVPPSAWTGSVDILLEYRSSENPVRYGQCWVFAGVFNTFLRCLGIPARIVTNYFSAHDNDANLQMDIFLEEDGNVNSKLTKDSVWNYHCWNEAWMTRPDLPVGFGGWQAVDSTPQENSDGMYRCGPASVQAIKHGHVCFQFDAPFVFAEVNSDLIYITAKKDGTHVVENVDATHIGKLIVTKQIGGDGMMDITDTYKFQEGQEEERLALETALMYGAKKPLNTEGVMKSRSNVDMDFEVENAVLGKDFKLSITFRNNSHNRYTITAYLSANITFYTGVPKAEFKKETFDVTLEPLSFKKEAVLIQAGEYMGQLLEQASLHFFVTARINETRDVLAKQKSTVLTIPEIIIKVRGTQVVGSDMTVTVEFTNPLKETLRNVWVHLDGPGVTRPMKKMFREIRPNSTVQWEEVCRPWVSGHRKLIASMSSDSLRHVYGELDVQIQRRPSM", "assay": "FXIIIa fluorescence-based transglutamination assay", "format": "biochemical", "conditions": "pH 7.4, 37 °C", "procedure": "(§2) Direct inhibition of the human coagulation transglutaminase FXIIIa was also studied using a fluorescence-based transglutamination assay as reported in the literature.\nThe activity of FXIIIa was evaluated by the addition of 5 μL dansylcadaverine (2 mM) and measuring the initial rate of increase in fluorescence emission (λEx. = 360 nm and λEm. = 490 nm). In all assays, the dose dependence of the fractional residual enzyme activity, if any, was analyzed using Equation (1) above to obtain the apparent concentration of the test molecule required to reduce the enzyme activity to 50% of its initial value. All assays were performed three times."}, "[2]": {"target": "T2, human neutrophil elastase (Homo sapiens, UniProt P08246)", "T2 construct": "purchased Elastin Products Company", "T2 sequence (P08246 30-247 limits assumed)": "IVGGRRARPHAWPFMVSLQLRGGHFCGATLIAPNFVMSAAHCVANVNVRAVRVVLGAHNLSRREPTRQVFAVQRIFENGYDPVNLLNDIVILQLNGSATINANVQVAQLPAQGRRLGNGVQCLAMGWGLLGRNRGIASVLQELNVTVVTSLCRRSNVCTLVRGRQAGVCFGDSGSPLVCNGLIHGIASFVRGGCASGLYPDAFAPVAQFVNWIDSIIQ", "assay": "Neutrophil elastase chromogenic substrate hydrolysis assay", "format": "biochemical", "conditions": "pH 7.4", "procedure": "as §2\n(§3) After 10 min incubation, 5 µL FXIa substrate (6.9 mM stock concentration) was rapidly added and the residual FXIa activity was measured from the initial rate of increase in absorbance at 405 nm. Assays were performed in similar fashion with trypsin and chymotrypsin. Stock concentrations used were 18.9 µg/mL (trypsin) and 22.7 mM (S-2222) for bovine trypsin assay (final volume was 200 µL) and 2 µg/mL (chymotrypsin) and 16.2 mM (N-Succinyl-Ala-Ala-Pro-Phe-p-nitroanilide) for bovine chymotrypsin assay (final volume was 200 µL). The buffer used for FXIa, trypsin, chymotrypsin assays was 50 mM Tris-HCl buffer, pH 7.4, containing 150 mM NaCl, 2.5 mM CaCl2, 0.1% PEG8000, and 0.02% Tween80. Neutrophil elastase inhibition assay was performed in a 96-well plate with a final volume of 100 µl with 0.125 M 4-(2-hydroxyethyl)-1-piperazineethanesulfonic acid (HEPES) buffer, pH 7.4 containing 0.125% Triton-X 100, as reported earlier. […] After incubation, 3 µL neutrophil elastase substrate (S-1384; 25 mM stock conc.) was rapidly added and the residual enzyme activity measured from the initial rate of increase in the absorbance at 405 nm."}, "bovine chymotrypsin": {"target": "T3, bovine chymotrypsin (Bos taurus, UniProt P00766)", "T3 construct": "purchased Millipore-Sigma", "assay": "Chymotrypsin chromogenic substrate hydrolysis assay", "format": "biochemical", "conditions": "pH 7.4", "procedure": "as §2, §3"}, "human FXa": {"target": "human FXa (Homo sapiens, UniProt P00742)", "sequence (P00742 235-488 limits assumed)": "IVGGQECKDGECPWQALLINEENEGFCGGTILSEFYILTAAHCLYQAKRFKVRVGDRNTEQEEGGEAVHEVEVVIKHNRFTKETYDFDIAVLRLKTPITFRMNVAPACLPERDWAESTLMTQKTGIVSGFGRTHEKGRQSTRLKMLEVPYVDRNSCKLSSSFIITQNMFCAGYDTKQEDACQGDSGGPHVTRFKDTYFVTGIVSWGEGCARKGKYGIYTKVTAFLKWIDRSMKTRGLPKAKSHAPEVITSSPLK", "sequence (P00742 41-179 partner limits assumed)": "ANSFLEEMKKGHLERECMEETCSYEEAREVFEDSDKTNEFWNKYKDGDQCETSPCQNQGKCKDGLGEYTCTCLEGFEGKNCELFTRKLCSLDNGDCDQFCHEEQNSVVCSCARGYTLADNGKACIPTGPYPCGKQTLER", "assay": "Michaelis-Menten kinetics of Spectrozyme FXa hydrolysis by FXa", "format": "biochemical", "conditions": "for Km / VMAX of Spectrozyme FXa hydrolysis: pH 7.4, 37 °C", "procedure": "(§4) The initial rate of Spectrozyme FXa hydrolysis by human FXa (87 nM) or that of Spectrozyme PL hydrolysis by human plasmin (120 nM) was monitored from the linear increase in absorbance at 405 nm corresponding to less than 10% consumption of the substrate. […] The data were fitted by Michaelis-Menten Equation (2) to determine KM (substrate affinity to the enzyme) and VMAX (maximum velocity of enzyme reaction). (2) Vi=VMAX×[S]/KM+[S]"}, "human plasmin": {"target": "human plasmin (Homo sapiens, UniProt P00747)", "sequence (P00747 581-810 limits assumed)": "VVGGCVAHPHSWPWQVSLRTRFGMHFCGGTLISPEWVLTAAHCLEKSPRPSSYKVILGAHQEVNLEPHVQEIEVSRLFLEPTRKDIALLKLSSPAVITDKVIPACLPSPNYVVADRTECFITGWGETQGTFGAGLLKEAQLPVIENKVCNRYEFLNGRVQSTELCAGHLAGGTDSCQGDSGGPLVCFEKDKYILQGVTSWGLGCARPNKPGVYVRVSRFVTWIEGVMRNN", "sequence (P00747 97-580 partner limits assumed)": "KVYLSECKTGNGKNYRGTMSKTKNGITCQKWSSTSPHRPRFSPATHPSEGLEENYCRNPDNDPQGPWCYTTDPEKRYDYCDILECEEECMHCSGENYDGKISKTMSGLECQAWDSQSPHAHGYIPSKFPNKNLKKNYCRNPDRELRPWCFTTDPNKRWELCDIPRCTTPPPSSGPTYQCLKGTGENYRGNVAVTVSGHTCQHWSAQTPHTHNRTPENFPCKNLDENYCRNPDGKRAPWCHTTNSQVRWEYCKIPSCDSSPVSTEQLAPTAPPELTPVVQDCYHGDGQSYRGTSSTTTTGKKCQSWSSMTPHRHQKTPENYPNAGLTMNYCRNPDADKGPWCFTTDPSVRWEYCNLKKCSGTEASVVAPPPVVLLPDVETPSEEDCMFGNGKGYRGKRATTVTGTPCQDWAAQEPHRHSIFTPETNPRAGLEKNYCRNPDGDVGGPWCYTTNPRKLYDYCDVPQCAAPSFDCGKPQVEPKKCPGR", "assay": "Michaelis-Menten kinetics of Spectrozyme PL hydrolysis by plasmin", "format": "biochemical", "conditions": "for VMAX of Spectrozyme PL hydrolysis: pH 7.4, 37 °C", "procedure": "as §4"}, "[3]": {"conditions": "cited from earlier work"}, "[4]": {"conditions": "parenteral administration, patients"}}, "note": "Where “and” joins values, the source holds several entries; their conditions need not be identical. Equal entries are not always repeated.", "data": [{"smiles": "N=C(N)c1ccc(OCCCCCOc2ccc(C(=N)N)cc2)cc1", "note": "[pentamidine isethionate, 4,4′-(pentane-1,5-diylbis(oxy))-dibenzimidamide]", "values": [{"measurement": "APTTEC2×, concentration to double clotting time", "setting": "[1]", "value": "26.32 ± 3.52", "unit": "µm"}, {"measurement": "PTEC2×, concentration to double clotting time", "setting": "normal human plasma; PT assay, normal human plasma", "value": "45.70 ± 0.85", "unit": "µm"}, {"measurement": "concentration to double the PT", "setting": "normal human plasma", "value": "45.7 µM and 45.70 ± 0.85 µM"}, {"measurement": "concentration to double the PT", "setting": "normal human plasma; listed as pentamidine", "value": "lower than 50 µM"}, {"measurement": "IC50", "setting": "human FXIIIa", "value": "> 50", "unit": "µM"}, {"measurement": "IC50", "setting": "[2]", "value": "> 100", "unit": "µM"}, {"measurement": "IC50", "setting": "bovine chymotrypsin", "value": "> 1750", "unit": "µM"}, {"measurement": "Km", "setting": "human FXa; 5 µM pentamidine isethionate", "value": "267 ± 21.2", "unit": "µM"}, {"measurement": "VMAX of Spectrozyme FXa hydrolysis", "setting": "human FXa; 5 µM pentamidine isethionate", "value": "114.3 ± 4.7", "unit": "mAU/min"}, {"measurement": "Km", "setting": "human FXa; 10 µM pentamidine isethionate", "value": "410 ± 18.2", "unit": "µM"}, {"measurement": "VMAX of Spectrozyme FXa hydrolysis", "setting": "human FXa; 10 µM pentamidine isethionate", "value": "124.2 ± 3.3", "unit": "mAU/min"}, {"measurement": "Km", "setting": "human FXa; 20 µM pentamidine isethionate", "value": "364 ± 36.6", "unit": "µM"}, {"measurement": "VMAX of Spectrozyme FXa hydrolysis", "setting": "human FXa; 20 µM pentamidine isethionate", "value": "63.1 ± 3.6", "unit": "mAU/min"}, {"measurement": "Km", "setting": "human FXa; 50 µM pentamidine isethionate", "value": "690 ± 63.1", "unit": "µM"}, {"measurement": "VMAX of Spectrozyme FXa hydrolysis", "setting": "human FXa; 50 µM pentamidine isethionate", "value": "60.3 ± 3.8", "unit": "mAU/min"}, {"measurement": "decrease of VMAX of Spectrozyme FXa hydrolysis", "setting": "human FXa; inhibitor 50 μM vs absence", "value": "~ 2.8 fold"}, {"measurement": "increase of KM for Spectrozyme FXa", "setting": "human FXa; inhibitor 50 μM vs absence", "value": "~ 2.3 fold"}, {"measurement": "VMAX of Spectrozyme PL hydrolysis", "setting": "human plasmin; 10 µM pentamidine isethionate", "value": "78.7 ± 2.0", "unit": "mAU/min"}, {"measurement": "VMAX of Spectrozyme PL hydrolysis", "setting": "human plasmin; 20 µM pentamidine isethionate", "value": "88.4 ± 1.0", "unit": "mAU/min"}, {"measurement": "VMAX of Spectrozyme PL hydrolysis", "setting": "human plasmin; 50 µM pentamidine isethionate", "value": "92.9 ± 3.2", "unit": "mAU/min"}, {"measurement": "VMAX of Spectrozyme PL hydrolysis", "setting": "human plasmin; 100 µM pentamidine isethionate", "value": "90.9 ± 6.5", "unit": "mAU/min"}, {"measurement": "type of inhibition of plasmin", "setting": "human plasmin; Michaelis-Menten kinetics", "value": "competitively inhibits"}, {"measurement": "increase of KM for Spectrozyme PL", "setting": "human plasmin; inhibitor 100 μM vs absence", "value": "~ 13.9 fold"}, {"measurement": "anemia, incidence", "setting": "[3]; [4]", "value": 1, "unit": "%"}, {"measurement": "leukopenia, incidence", "setting": "[3]; [4]", "value": 10, "unit": "%"}, {"measurement": "thrombocytopenia, incidence", "setting": "[3]; [4]", "value": 3, "unit": "%"}, {"measurement": "blood clot formation, share of treated patients", "setting": "[3]; treated patients", "value": "less than 1%"}]}]}
